How the values were obtained:
[1] = target: T1, h-cGAS (Homo sapiens, UniProt Q8N884); experiment: ATP-coupled luminescence (LUM, Kinase-Glo) high-throughput assay, h-cGAS; type: biochemical; design: His6-SUMO (N, cleaved yes); made in house; host or cells: E. coli BL21-CodonPlus(DE3)-RIL
[2] = target: T1, h-cGAS; experiment: RapidFire mass spectrometry (RF-MS) cGAS activity assay, h-cGAS
[3] = system: 45-bp dsDNA; experiment: dsDNA intercalation fluorescence polarization assay (acridine orange); type: binding; details: for Polarization: compound at 30 µM
[4] = target: m-cGAS (Mus musculus, UniProt Q8C6L5); experiment: RapidFire mass spectrometry (RF-MS) cGAS activity assay, m-cGAS
[5] = library stock, ten half-dilutions from 25 µM, read-out: h-cGAS IC50 (LUM)
[6] = h-cGAS IC50, RF-MS, freshly sourced vendor powder
[7] = m-cGAS IC50, RF-MS, freshly sourced vendor powder
[8] = IC50 h-cGAS, RF-MS, in-house synthesized compounds
[9] = IC50 m-cGAS, RF-MS, in-house synthesized compounds

Chain of m-cGAS (Q8C6L5 whole entry): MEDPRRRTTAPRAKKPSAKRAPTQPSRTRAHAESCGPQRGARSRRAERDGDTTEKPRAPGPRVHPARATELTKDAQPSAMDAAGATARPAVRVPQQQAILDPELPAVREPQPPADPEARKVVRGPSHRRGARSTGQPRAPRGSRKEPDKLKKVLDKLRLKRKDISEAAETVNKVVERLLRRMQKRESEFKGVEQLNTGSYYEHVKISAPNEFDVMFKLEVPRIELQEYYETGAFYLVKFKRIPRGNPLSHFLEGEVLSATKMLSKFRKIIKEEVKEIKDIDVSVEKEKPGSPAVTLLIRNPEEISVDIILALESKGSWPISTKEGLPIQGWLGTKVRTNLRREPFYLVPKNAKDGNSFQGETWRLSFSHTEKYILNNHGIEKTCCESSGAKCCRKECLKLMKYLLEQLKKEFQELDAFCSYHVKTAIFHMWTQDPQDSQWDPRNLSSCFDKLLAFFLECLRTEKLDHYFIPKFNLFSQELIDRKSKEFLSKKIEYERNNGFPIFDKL
T1 sequence (Q8N884 whole entry): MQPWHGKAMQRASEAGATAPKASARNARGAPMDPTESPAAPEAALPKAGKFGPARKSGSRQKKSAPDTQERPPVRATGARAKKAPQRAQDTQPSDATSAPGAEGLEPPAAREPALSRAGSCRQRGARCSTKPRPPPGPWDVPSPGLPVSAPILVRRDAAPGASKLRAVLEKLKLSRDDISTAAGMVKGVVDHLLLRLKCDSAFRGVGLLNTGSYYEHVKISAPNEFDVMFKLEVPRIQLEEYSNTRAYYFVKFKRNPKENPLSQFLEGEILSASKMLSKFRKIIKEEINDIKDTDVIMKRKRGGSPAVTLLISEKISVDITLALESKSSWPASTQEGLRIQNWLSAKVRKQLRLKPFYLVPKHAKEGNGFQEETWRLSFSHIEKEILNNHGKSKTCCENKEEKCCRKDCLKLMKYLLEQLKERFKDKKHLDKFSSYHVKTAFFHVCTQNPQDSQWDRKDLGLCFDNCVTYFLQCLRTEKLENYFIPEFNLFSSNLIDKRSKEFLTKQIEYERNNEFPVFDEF

SMILES	IC50 [1, 5] [µM]	IC50 [2, 6] [µM]	IC50 [4, 7] [µM]	IC50 [4, 9] [µM]	% Intercalation at 30 µM [3] [%]	Polarization [3] [mP]	IC50 [1] [µM]	IC50 [2, 8] [µM]
O=c1c(/C=N\C2CC2)c(-c2ccccc2)[nH]n1-c1nc2ccccc2s1 [RU-0166710_AA-001]	7.69	5.27	> 50		-5.01	252		
CNC(=O)CSc1nc(=O)n2nc(C)c(-c3ccccc3)c2[nH]1 [RU-0142869_AA-001]	9.12	4.78	> 50		-8.43	260		
N=C1/C(=C/c2ccc(O)cc2)C(=O)N=C2SC(c3ccccc3Cl)=NN12 [RU-0169289_AA-001]	9.95	5.18	14.9		-14.25	271		
COCC(=O)N1CCc2[nH]c3c(Cl)cc(Cl)cc3c2C1 [G001]		2.75	1.14	0.44	-6.09	258	1.2	2.08
Oc1cccc2ccc(Nc3ccccn3)nc12 [RU-0010562_AA-001]	9.1	13.2	> 50		10.31	220		
CCC/N=C\c1c(-c2ccccc2)[nH]n(-c2nc3ccccc3s2)c1=O [RU-0166755_AA-001]	7.29	12.8	> 50		-3.39	249		
N#CC(C(=O)/C=C/c1nccs1)C(=O)Nc1cccc(Cl)c1Cl (stereo not shown) [RU-0183726_AA-001]	7.46	4.63	17.3		-6.77	256		
O=C(Nc1cc(-c2ccccc2)ccn1)c1nnc[nH]1 [J073]				4.32				

More lines, main results first:

IC50 [1, 5] [µM]	IC50 [2, 6] [µM]	IC50 [4, 7] [µM]	IC50 [4, 9] [µM]	SMILES	% Intercalation at 30 µM [3] [%]	Polarization [3] [mP]	IC50 [1] [µM]	IC50 [2, 8] [µM]
1.38	1.31	21.5		NC(=O)n1c(O)c(C(=O)c2cccs2)c2cc(Cl)ccc21 [RU-0187170_AA-001]	-15.37	274		
4.8	33.1	> 50		Oc1ccccc1C1=NNC2(CC3CC2C2CCCC32)S1 (stereo not shown) [RU-0182153_AA-001]	-11.48	266		
1.09	0.965	7.51		CCC(=O)Nc1sc2c(c1-c1nc3ccccc3s1)CCN(CC)C2 [RU-0131894_AQ-001]	40.34	159		
3.9	8.1	11.6		O=c1[nH]c2c(Cl)c(Cl)c(Cl)cc2o1 [RU-0002019_AA-001]	-9.27	260		
0.128	1.05	17.9		N#Cc1c(C(F)(F)F)cc(=O)n2c1[nH]c1ccccc12 [RU-0006086_AA-001]	-13.31	268		
1.37	> 50	> 50		COCc1nn2c(=O)cc(Cc3ccccc3)[nH]c2c1-c1ccccc1 [RU-0171678_AA-001]	-2.74	248		
4.69	7.02	> 50		CSC(=S)N/N=C(\c1ccccc1)c1ccccn1 [RU-0172034_AA-001]	-10.03	263		
2.72	7.82	> 50		Cc1ccc(-n2[nH]c(C(=O)Nc3ccnc4ccnn34)cc2=O)cc1 [RU-0208705_AA-001]	-20.07	283		
0.913	0.976	0.972	0.49	O=C(Nc1ccc(Cl)cn1)c1[nH]ncc1[N+](=O)[O-] [J001]	-7.59	258		1.04

Reference: paper PMC6529454, “Development of human cGAS-specific small-molecule inhibitors for repression of dsDNA-triggered interferon expression” (Nature Communications, 2019)
